Measured values published in patent US9175355B2, “Methods for determining the presence of antibodies blocking viral infection” (Monogram Biosciences, Inc., priority 2002, dated 2015).

Legend:
X4 tropic viruses = settings: inhibitory concentration of drug; U87/CD4/CXCR4
Protocol: One cell line expresses CD4 plus CCR5 (U87/CD4/CCR5), also referred to as R5 cells in this application. The other cell line expresses CD4 and CXCR4 (U87/CD4/CXCR4) also referred to as X4 cells in this application. The virus entry assay is performed by infecting individual cell cultures with recombinant virus stocks derived from cells transfected with pHIVenv and pHIV luc or pHIVlucΔU3 vectors. pHIVenv vectors contain patient virus derived sequences and express HIV-1 envelope proteins (gp120SU, gp41TM). In this embodiment viruses are evaluated in using R5 and X4 target cells cultured in 96 well plates (FIG. 3A). Typically, R5 and X4 cells are plated one day prior to infection. […] Co-receptor tropism is assessed by comparing the amount of luciferase activity produced in each cell type, both in the presence and absence of drug. In this embodiment, the results of the assay are interpreted by comparing the ability of each virus to preferentially infect (produce luciferase activity) R5 cells or X4 cells, or both X4 and R5 cells if the virus is dual tropic. The ability of the CCR5 or CXCR4 inhibitor to specifically block infection (inhibit luciferase activity) is also evaluated (FIG. 3B).

[1] = system: HIV-1 (NL4-3, JRCSF) with mutations in the GIV motif of gp41; test: Virus entry assay: T-20 susceptibility of site directed gp41 mutant viruses; type: cell-based; settings: cells expressing CD4, CCR5 and CXCR4; luciferase; compared by IC50
Protocol: Susceptibility assays for HIV-1 entry inhibitors were performed using packaging host cells consisting of the human embryonic kidney cell line 293 (Cell Culture Facility, UC San Francisco, SF, CA) and target host cells consisting of a human osteosarcoma (HOS) cell line expressing CD4 (HT4) plus CCR5, and CXCR4, or astrocytoma (U-87) cell lines expressing either CD4 and CCR5 or CD4 and CXCR4.
Drug susceptibility testing was performed using pHIVenv and pHIVluc or pHIVlucΔU3. Pseudotyped HIV particles containing envelope proteins encoded by the patient derived segment were produced by transfecting a packaging host cell (HEK 293) with resistance test vector DNA. […] After infection (˜72 h) the target cells are lysed and luciferase activity is measured. […] The amount of luciferase activity detected in the infected cells is used as a direct measure of “infectivity” (FIGS. 1 and 2). […] Drug susceptibility is assessed by comparing the infectivity in the absence of drug to infectivity in the presence of drug. Relative drug susceptibility can be quantified by comparing the susceptibility of the “test” virus to the susceptibility of a well-characterized reference virus (wildtype) derived from a molecular clone of HIV-1, for example NL4-3 or HXB2. […]

## c1cc(CN2CCCNCCNCCCNCC2)ccc1CN1CCCNCCNCCCNCC1 [AMD3100]
X4 tropic viruses
  Infection of X4 cells by X4 tropic viruses (luciferase activity): blocked

## enfuvirtide
[1]
  T-20 susceptibility of viruses with one mutation in gp41 motif (DIV, GIM, SIV) vs wildtype virus (GIV): less susceptible
  T-20 susceptibility of viruses with two mutations in GIV motif (DIM, SIM, DTV) vs viruses with one or no mutations: less susceptible
